Compound Nc1ccc(Cl)nn1 has a solubility (mole fraction) (in DMF, 298.45 K) of 0.0353, a solubility (mole fraction) (in DMF, 303.35 K) of 0.0401 and a solubility (mole fraction) (in DMF, 308.15 K) of 0.0455. It also gave a solubility (mole fraction) (in DMF, 313.35 K) of 0.0522, a solubility (mole fraction) (in DMF, 318.15 K) of 0.0592 and a solubility (mole fraction) (in DMF, 323.25 K) of 0.0647. The solubility (mole fraction) (in DMF, 328.35 K) was 0.0705, the solubility (mole fraction) (in DMF, 333.45 K) was 0.0768 and the solubility (mole fraction) (in DMF, 337.95 K) was 0.083. The solubility (mole fraction) (in DMF, 343.05 K) was 0.0904, the solubility (mole fraction) (in acetone, 298.15 K) was 0.00338 and the solubility (mole fraction) (in acetone, 303.15 K) was 0.00423. It also gave a solubility (mole fraction) (in acetone, 308.15 K) of 0.00513, a solubility (mole fraction) (in acetone, 313.25 K) of 0.00597 and a solubility (mole fraction) (in acetone, 318.15 K) of 0.00682. For the same compound, the solubility (mole fraction) (in acetone, 323.15 K) was 0.00791, the solubility (mole fraction) (in acetone, 328.15 K) was 0.00871 and the solubility (mole fraction) (in cyclohexanone, 298.25 K) was 0.00455. It also gave a solubility (mole fraction) (in cyclohexanone, 303.25 K) of 0.0053, a solubility (mole fraction) (in cyclohexanone, 308.15 K) of 0.00643 and a solubility (mole fraction) (in cyclohexanone, 313.15 K) of 0.00782. The solubility (mole fraction) (in cyclohexanone, 318.25 K) was 0.00889, the solubility (mole fraction) (in cyclohexanone, 323.05 K) was 0.0107 and the solubility (mole fraction) (in cyclohexanone, 328.15 K) was 0.0125. It also gave a solubility (mole fraction) (in cyclohexanone, 333.15 K) of 0.015, a solubility (mole fraction) (in cyclohexanone, 338.25 K) of 0.0174 and a solubility (mole fraction) (in cyclohexanone, 343.15 K) of 0.02. The solubility (mole fraction) (in ethanol, 298.15 K) was 0.00206, the solubility (mole fraction) (in ethanol, 303.25 K) was 0.00271 and the solubility (mole fraction) (in ethanol, 308.15 K) was 0.00318. The solubility (mole fraction) (in ethanol, 313.15 K) was 0.00405, the solubility (mole fraction) (in ethanol, 318.15 K) was 0.005 and the solubility (mole fraction) (in ethanol, 323.15 K) was 0.006. The solubility (mole fraction) (in ethanol, 328.15 K) was 0.00702, the solubility (mole fraction) (in ethanol, 333.15 K) was 0.00848 and the solubility (mole fraction) (in ethanol, 338.15 K) was 0.00994. The solubility (mole fraction) (in ethanol, 342.85 K) was 0.0113, the solubility (mole fraction) (in ethyl acetate, 298.45 K) was 0.00133 and the solubility (mole fraction) (in ethyl acetate, 303.35 K) was 0.00166. The solubility (mole fraction) (in ethyl acetate, 308.15 K) was 0.00194, the solubility (mole fraction) (in ethyl acetate, 313.15 K) was 0.00227 and the solubility (mole fraction) (in ethyl acetate, 318.25 K) was 0.00263. For the same compound, the solubility (mole fraction) (in ethyl acetate, 323.25 K) was 0.00319, the solubility (mole fraction) (in ethyl acetate, 328.15 K) was 0.00358 and the solubility (mole fraction) (in ethyl acetate, 333.15 K) was 0.00413. The solubility (mole fraction) (in ethyl acetate, 338.35 K) was 0.00479, the solubility (mole fraction) (in ethyl acetate, 343.15 K) was 0.0053 and the solubility (mole fraction) (in methanol, 298.15 K) was 0.00388. For the same compound, the solubility (mole fraction) (in methanol, 303.35 K) was 0.00444, the solubility (mole fraction) (in methanol, 308.05 K) was 0.00525 and the solubility (mole fraction) (in methanol, 313.15 K) was 0.00605. For the same compound, the solubility (mole fraction) (in methanol, 318.15 K) was 0.00721, the solubility (mole fraction) (in methanol, 322.95 K) was 0.00824 and the solubility (mole fraction) (in methanol, 328.55 K) was 0.00936. It also gave a solubility (mole fraction) (in methanol, 332.45 K) of 0.0107, a solubility (mole fraction) (in n-butanol, 296.55 K) of 0.00171 and a solubility (mole fraction) (in n-butanol, 302.95 K) of 0.00224. For the same compound, the solubility (mole fraction) (in n-butanol, 309.85 K) was 0.00315, the solubility (mole fraction) (in n-butanol, 313.05 K) was 0.00357 and the solubility (mole fraction) (in n-butanol, 318.25 K) was 0.00428. For the same compound, the solubility (mole fraction) (in n-butanol, 322.95 K) was 0.00498, the solubility (mole fraction) (in n-butanol, 328.15 K) was 0.00629 and the solubility (mole fraction) (in n-butanol, 333.45 K) was 0.00741. The solubility (mole fraction) (in n-butanol, 338.35 K) was 0.00871, the solubility (mole fraction) (in n-butanol, 343.15 K) was 0.0102 and the solubility (mole fraction) (in toluene, 298.15 K) was 5.02e-05. It also gave a solubility (mole fraction) (in toluene, 303.25 K) of 6.73e-05, a solubility (mole fraction) (in toluene, 308.15 K) of 8.17e-05 and a solubility (mole fraction) (in toluene, 313.35 K) of 0.000116. It also gave a solubility (mole fraction) (in toluene, 318.15 K) of 0.000155, a solubility (mole fraction) (in toluene, 323.25 K) of 0.000202 and a solubility (mole fraction) (in toluene, 328.35 K) of 0.00025. It also gave a solubility (mole fraction) (in toluene, 333.15 K) of 0.000293, a solubility (mole fraction) (in toluene, 338.35 K) of 0.000352 and a solubility (mole fraction) (in toluene, 343.55 K) of 0.000454.
